Experimental data as given in US10517889B2, “Modulators of SMAD7 expression” (Ionis Pharmaceuticals, Inc., priority 2017, dated 2019).
Strand notation (5' to 3'): a small letter for the sugar, then the base; units joined by * are phosphorothioate-linked, units joined directly phosphodiester-linked; [ ] holds rarer units or linkages, { } end groups; capitals alone tell only the bases. k = constrained ethyl (cEt); [5mC] = 5-methylcytosine; d = 2'-deoxy (DNA)

Legend:
human SMAD7 mRNA [1] = experiment: Antisense inhibition of human SMAD7 mRNA expression in Hep3B cells by 3-10-3 cEt gapmers, 10,000 nM, electroporation (Example 2); type: cell-based; settings: approximately 24 hours
In short: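 qRT-PCR (RTS5062) of SMAD7 mRNA, normalised to RIBOGREEN total RNA, gave percent inhibition relative to untreated controls. Hep3B cells at 20,000 per well received 10,000 nM oligonucleotide by electroporation, with ~24 h treatment.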

human SMAD7 mRNA [2] = experiment: Dose-dependent inhibition of human SMAD7 mRNA expression in Hep3B cells (Example 3, Study 1 and 2); type: cell-based; settings: electroporation; for % inhibition of SMAD7 mRNA expression: approximately 16 hours; for IC50: Study 2 (740-20000 nM)
Description: The antisense oligonucleotides were tested in a series of experiments that had similar culture conditions as described below.
(§1) Cells were plated at a density of 20,000 cells per well and transfected using electroporation with 0.31 μM, 1.25 μM, 5.00 μM, or 20.00 μM concentrations of antisense oligonucleotide, as specified in the Tables below. ION 483663 was included in the assays for comparison. After a treatment period of approximately 16 hours, RNA was isolated from the cells and SMAD7 mRNA levels were measured by quantitative real-time PCR. Primer probe set RTS5062 was used to measure human SMAD7 mRNA levels. SMAD7 mRNA levels were adjusted according to total RNA content, as measured by RIBOGREEN®. Results are presented as percent inhibition of SMAD7 mRNA expression, relative to untreated control cells.
The half maximal inhibitory concentration (IC50) of each oligonucleotide is also presented.
as §1, with “0.74” for “0.31”, “2.22” for “1.25”, “6.67” for “5.00”, “below.” for “below. ION 483663 was included in the assays for comparison.”

[3] = Hep3B cells, electroporation with 10,000 nM antisense oligonucleotide, RTS5062, percent inhibition of SMAD7 mRNA relative to untreated control cells
[4] = 740 nM, Study 2, relative to untreated control cells
[5] = Hep3B cells, electroporation with 10,000 nM antisense oligonucleotide, SMAD7 mRNA by RT-PCR (RTS5062), relative to untreated control cells
[6] = Hep3B cells, electroporation with 10,000 nM antisense oligonucleotide, primer probe set RTS5062, relative to untreated control cells
[7] = Hep3B cells, electroporation, 10,000 nM antisense oligonucleotide, RTS5062, relative to untreated control cells

Row | Substance | % Inhibition (human SMAD7 mRNA [1]; [3]) [%] | % inhibition of SMAD7 mRNA expression (human SMAD7 mRNA [2]; [4]) [%] | % inhibition of SMAD7 mRNA expression (human SMAD7 mRNA [2]; 2220 nM, Study 2) [%] | % inhibition of SMAD7 mRNA expression (human SMAD7 mRNA [2]; 6670.0 nM, Study 2) [%] | % inhibition of SMAD7 mRNA expression (human SMAD7 mRNA [2]; 20000.0 nM, Study 2) [%] | IC50 (human SMAD7 mRNA [2]) [nM] | % Inhibition (human SMAD7 mRNA [1]; Hep3B cells, 10,000 nM antisense oligonucleotide, electroporation, RT-PCR primer probe set RTS5062, relative to untreated control cells) [%] | % Inhibition (human SMAD7 mRNA [1]; [5]) [%] | % inhibition of SMAD7 mRNA expression (human SMAD7 mRNA [1]; [6]) [%] | % inhibition of SMAD7 mRNA expression (human SMAD7 mRNA [1]; [7]) [%]
1 | 799605 (k[5mC]*k[5mC]*kA*dA*dT*dA*dA*dA*dG*dT*dT*d[5mC]*d[5mC]*k[5mC]*kT*kT; antisense) [compound 799605] | 56 | 18 | 46 | 51 | 75 | 8000 | – | – | – | –
2 | 799669 (antisense kT*kA*kT*dG*dA*d[5mC]*dA*dG*dA*dT*dG*d[5mC]*d[5mC]*kA*kG*k[5mC]) [compound 799669] | 81 | 47 | 72 | 82 | 95 | 3000 | – | – | – | –
3 | 799851 (kA*kA*kG*dT*dG*dT*d[5mC]*d[5mC]*dA*dT*d[5mC]*dA*dA*kG*k[5mC]*kA; antisense) [compound 799851] | – | 15 | 36 | 46 | 57 | 2000 | 70 | – | – | –
4 | 830163 (antisense k[5mC]*kA*kA*d[5mC]*dT*dG*dA*dA*dG*dG*dT*dG*dA*k[5mC]*k[5mC]*k[5mC]) [compound 830163] | – | 33 | 49 | 73 | 84 | 2000 | – | 60 | – | –
5 | 799089 (antisense kA*kG*k[5mC]*dA*dA*dT*dA*d[5mC]*dT*dG*dT*dG*dA*kG*kG*kG) [compound 799089] | – | 12 | 40 | 61 | 76 | 7000 | – | – | 60 | –
6 | 799556 (kA*k[5mC]*kA*dA*d[5mC]*dA*dA*dT*dG*d[5mC]*dT*d[5mC]*dT*kG*kG*k[5mC]; antisense) [compound 799556] | – | 0 | 50 | 71 | 71 | 2000 | – | – | – | 68
7 | 799712 (antisense kA*kT*kA*dG*dA*dT*dT*dA*dT*d[5mC]*d[5mC]*dA*dA*kG*kT*kA) [compound 799712] | – | 27 | 45 | 55 | 63 | 3000 | – | – | – | 70
8 | 799486 (antisense k[5mC]*kA*kT*dA*dA*dT*dG*dA*d[5mC]*dT*dT*dA*dT*k[5mC]*k[5mC]*kA) [compound 799486] | – | 20 | 17 | 57 | 88 | 11000 | – | 52 | – | –
9 | 799365 (k[5mC]*kT*k[5mC]*d[5mC]*dG*dA*dG*dT*dT*dA*dT*d[5mC]*d[5mC]*k[5mC]*k[5mC]*kA; antisense) [compound 799365] | – | 11 | 39 | 73 | 94 | 4000 | – | – | 61 | –
10 | 799318 (antisense kG*kT*kG*dG*dA*dT*dT*dT*dG*dA*dA*dA*dA*kG*kG*kG) [compound 799318] | 58 | 12 | 40 | 70 | 75 | 11000 | – | – | – | –
11 | 798696 (antisense kT*k[5mC]*k[5mC]*d[5mC]*d[5mC]*d[5mC]*dT*dG*d[5mC]*dG*d[5mC]*d[5mC]*d[5mC]*kT*k[5mC]*k[5mC]) [compound 798696] | – | 0 | 33 | 58 | 66 | < 700 | – | 82 | – | –
